Assay results: paper PMC3866371 (Neuropharmacology, 2013)
Read-outs that look alike come from different tables or passages of the source.

How the values were obtained:
human α3β4α5 nAChR [1] = molecular target: T1, human α3β4α5 nAChR (Homo sapiens, UniProt P30926+P32297); test: Competition binding with [^125I]AT-1012 as radioligand, HEK cell membranes
rat α4β2 nAChR = rat α4β2 nAChR (Rattus norvegicus, UniProt P09483+P12390); test: Competition binding with [^3H]epibatidine as radioligand, HEK cell membranes
rat α3β4 nAChR [2] = molecular target: T2, rat α3β4 nAChR (Rattus norvegicus, UniProt P04757+P12392); test: as above
rat α3β4 nAChR [3] = molecular target: T2, rat α3β4 nAChR; test: Competition binding with [^125I]AT-1012 as radioligand, HEK cell membranes
human α3β4α5 nAChR [4] = molecular target: T1, human α3β4α5 nAChR; type: binding
α7 nAChR = α7 nAChR (Homo sapiens, UniProt P36544); test: Binding at α7 nAChR
[5] = radioligand [^125I]AT-1012, human α3β4α5 nAChR, average ± SD
[6] = read-out: Binding affinity (Ki)
[7] = radioligand [^125I]AT-1012, rat α3β4 nAChR, average ± SD

Structure (SMILES) | Competition with [^125I]AT-1012 at the human α3β4α5 nAChR (human α3β4α5 nAChR [1]) | Ki (rat α4β2 nAChR) | Inhibition of [^125I]AT-1012 binding (rat α3β4 nAChR [3]; rat α3β4 nAChR) | Hill coefficient (human α3β4α5 nAChR [1]; [5]) | Hill coefficient (rat α4β2 nAChR) | Ki (rat α4β2 nAChR; [6]) | Hill coefficient (human α3β4α5 nAChR [4]) | Hill coefficient (rat α3β4 nAChR [2]) | Hill coefficient (rat α3β4 nAChR [3]; [7]) | also measured
COCC[C@H]1CC2CN3CCc4c([nH]c5ccccc45)[C@](C(=O)OC)(C2)[C@H]13 [Compound 18-MC, 18-methoxycoronaridine] | do not compete | > 10000 nM | do not inhibit | – | – | – | – | – | – | Ki (rat α3β4 nAChR [2]): > 10000 nM; Ki (rat α3β4 nAChR [3]): > 10000 nM
CNC1(C)C2CCC(C2)C1(C)C (stereo not drawn) [Mecamylamine] | do not compete | > 10000 nM | do not inhibit | – | – | – | – | – | – | –
CN1C2CCCC1CC(Nc1ccccc1Br)C2 (stereo not drawn) [AT-1001] | – | – | – | 0.95±0.05 | 0.97±0.11 | 263 ± 9.3 nM | 0.82±0.04 | 0.87±0.19 | 0.94±0.04 | –
Clc1ccc(C2CC3CCC2N3)cn1 (stereo not drawn) [Epibatidine] | – | – | – | 0.88±0.02 | – | – | 0.98±0.02 | 1.00±0.06 | 0.89±0.01 | –
CN1[C@@H]2CCC[C@H]1CC(Nc1ccccc1I)C2 (stereo partly drawn) [AT-1012] | – | – | – | 0.96±0.09 | 0.88±0.02 | 142 ± 2 nM | – | 0.77±0.09 | 1.03±0.01 | Ki (human α3β4α5 nAChR [1]; read-out: Binding affinity (Ki) at human α3β4α5 nAChR, radioligand [^125I]AT-1012, average ± SD): 0.68 ± 0.06 nM; Binding selectivity for the α3β4 over α4β2 nAChR (rat α4β2 nAChR): over 100 fold; Ki (human α3β4α5 nAChR [4]; read-out: Binding affinity (Ki) at human α3β4α5 nAChR): 1.08 ± 0.05 nM; Ki (rat α3β4 nAChR [2]; [6]): 1.3 ± 0.16 nM; Selectivity versus the α7 nAChR (α7 nAChR): greater than 100 fold
CN1CCC[C@H]1c1cccnc1 [Nicotine] | – | – | – | – | – | – | – | – | – | Hill coefficient (human α3β4α5 nAChR [1]): 1305±219 (0.75±0.05); Hill coefficient (rat α4β2 nAChR; radioligand [^3H]epibatidine, rat α4β2 nAChR, average ± SD): 0.95±0.07; Hill coefficient (human α3β4α5 nAChR [4]; radioligand [^3H]epibatidine, human α3β4α5 nAChR, average ± SD): 0.91±0.04; Hill coefficient (rat α3β4 nAChR [2]; radioligand [^3H]epibatidine, rat α3β4 nAChR, average ± SD): 1.08±0.12; Hill coefficient (rat α3β4 nAChR [3]): 467±48 (0.68±0.02)
